The values below come from patent publication US8574899B2, “Methods for augmentation collection of placental hematopoietic stem cells and uses thereof” (priority 2010, dated 2013).

One assay concerns the target CXCR4 (Homo sapiens, UniProt P61073). The settings on record: in vivo; cited from earlier work.
In the next assay the test system is human term placentas. The experiment in a line: Yield of TNC, CD34+CD45dim cells and CFU from placenta infused with cell-liberating compounds. The settings on record: infusion in PBS+, incubated 3-8 hours at 37° C., mean, N = 5; for Yield of colony-forming unit cells (CFU) obtained from placenta related to cord blood unit from the same donor: Methocult 12-14 days. It counts as cell-based. From the text:
HSCs and HPCs of the current invention were collected from 30 human term placentas by use of different cell-liberating compounds. Following IRB approval and informed consent, human term placentas were obtained from healthy females following caesarian section. Freshly obtained human placentas, which had been subjected to a conventional cord blood recovery process by draining substantially all of the cord blood from the placenta were used. Cord blood was collected from umbilical cord using standard techniques. Placentas were first infused with an anticoagulant/vasodilator solution (Heparin 30 […] 0.05 mg/ml) at a temperature of 20° C. For infusion procedures, artery and vein of umbilical cord were further cannulated and connected to a reservoir. Pressure in the umbilical cord artery and vein was constantly measured using Baxter pressure transducers (Protocol Systems, Portland, Oreg.). Constant temperature of infusate was maintained using heat exchange unit connected to temperature-controlled water bath. Placentas was infused with 100 ml phosphate buffered saline with additives: heparin (10 […]-acetyl-cysteine (1 mM), gentamycin (0.05 mg/ml) (PBS+) (Experiment 1), or 100 ml PBS+ with 3 mg/L AMD3100 (Sigma, St. Louis, Mo.) (Experiment 2); or 100 ml PBS+ with 1 mg/ml BIO5192 (Experiment 3). BIO5192 was supplied by AnorMED (Vancouver, BC) as a sterile powder and reconstituted in pH 7.0 ethanol:propylene glycol:water (10:36:54). In Experiment 4 100 ml PBS+ with 1 mg/ml Trypsin and 0.1 mg/ml Collagenase I (Sigma, St. Louis, Mo.) was infused into the placental artery or vein. In Experiment 5 100 ml PBS+ with Etoposide (1 mM) was infused into placental vein. […] Following incubation, fluid with cells was drained out of placental vessels and umbilical vein was infused with 100 ml of PBS and later flushed out 4 times via the umbilical artery. Collected cell suspension was centrifuged for 10 min at 1000 rpm, cells at the bottom collected and reconstituted in 10 ml PBS with heparin for further analyses. The following analyses were performed on cord blood and cell suspensions obtained from placenta: number of total nucleated cells determined by flow cytometry, number of CD34^+ and CD34^+CD45^dim cells determined by immunostaining with antibodies to CD34 and CD45, flow cytometry performed using FACS Calibur flow cytometer (BD Biosciences) and FlowJo software. Amounts of colony-forming unit cells were determined by culturing cells for 12-14 days in Methocult® medium (Stem Cell Technologies, Vancouver, Canada) according to manufacturer's instruction. Data obtained from cells collected from placental circulation were normalized to same variables obtained by analyses of cord blood cells (cord blood unit) collected from the corresponding placenta and are presented as percent of cord blood unit.

For a further assay, the system named is human placenta. The settings on record: 6-8 hour vascular perfusion of placenta; cited from earlier work.
In the next assay the target is α4β1 integrin (Homo sapiens, UniProt P05556+P13612). The settings on record: unactivated and activated forms of α4β1 integrin; cited from earlier work.
For assay [1], the target named is T1, α4-subunit of the α4β1 (VLA-4) and α4β7 integrins (Homo sapiens, UniProt P13612).
T1 construct: host or cells: MS patients (in vivo, endogenous protein)
The following applies: MS patients after anti-α4 integrin antibody administration; cited from earlier work.

Marks after values point to notes of the source that are not given here. Bounds are passed on as bounds.

CXCR4, sequence (P61073 whole entry, species assumed, the tested form may be a part): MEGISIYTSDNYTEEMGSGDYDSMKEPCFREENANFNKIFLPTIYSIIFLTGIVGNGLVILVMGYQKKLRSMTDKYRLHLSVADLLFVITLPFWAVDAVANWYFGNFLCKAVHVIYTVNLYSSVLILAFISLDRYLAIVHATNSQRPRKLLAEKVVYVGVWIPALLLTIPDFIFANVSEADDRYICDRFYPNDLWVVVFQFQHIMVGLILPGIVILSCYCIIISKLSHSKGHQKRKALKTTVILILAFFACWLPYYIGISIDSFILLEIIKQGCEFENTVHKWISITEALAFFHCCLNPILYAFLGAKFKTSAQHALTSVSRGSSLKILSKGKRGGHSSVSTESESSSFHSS

Turning to `c1cc(CN2CCCNCCNCCCNCC2)ccc1CN1CCCNCCNCCCNCC1` [AMD3100, 1,1′-[1,4-phenylene-bis(methylene)]-bis-1,4,8,11-tetraazacyclotetradecane], the “Mobilization of hematopoietic stem cells from the bone marrow to the bloodstream” value at CXCR4 is listed as “strong inducer of mobilization of hematopoietic stem cells”. Besides, in the assay on human term placentas, the “Yield of colony-forming unit cells (CFU) obtained from placenta related to cord blood unit from the same donor” value (“Yield of colony-forming unit cells” below) was 332* %, the “Yield of CD34+CD45dim cells obtained from placenta related to cord blood unit from the same donor” value (from here on “Yield of CD34+CD45dim cells obtained”) is on record as 412* % and the “Yield of TNC obtained from placenta related to cord blood unit from the same donor” value (shortened to “Yield of TNC obtained”) is 31%. Besides, in the assay with human placenta, the “Increase of yield of HSC from perfusate as compared to cord blood unit HSCs” value is “several-fold”.

As to `Cc1ccccc1NC(=O)Nc1ccc(CC(=O)N(C)[C@@H](CC(C)C)C(=O)NCC[C@H](NC(=O)[C@@H]2CCCN2S(=O)(=O)c2cc(Cl)cc(Cl)c2)C(=O)O)cc1` [BIO5192], on α4β1 integrin, the Kd – broadly, the concentration at which binding is half-saturated – is below 10 pM. In the assay with human term placentas, the “Yield of colony-forming unit cells” value is given as 423* %, the “Yield of CD34+CD45dim cells obtained” value is 524* % and the “Yield of TNC obtained” value turned out to be 24%.

For the molecule `COc1cc([C@@H]2c3cc4c(cc3[C@@H](O[C@@H]3O[C@@H]5CO[C@@H](C)O[C@H]5[C@H](O)[C@H]3O)[C@H]3COC(=O)[C@H]23)OCO4)cc(OC)c1O` [Etoposide], in the assay on human term placentas, the “Yield of colony-forming unit cells” value is reported as 211* %, the “Yield of CD34+CD45dim cells obtained” value is reported as 185* % and the “Yield of TNC obtained” value amounted to 18%.

For “natalizumab: recombinant humanized neutralizing IgG4 monoclonal antibody that binds the α4-subunit of α4β1 (VLA-4) and α4β7 integrins”, the “Circulating HSPCs” value in assay [1] is “rapid and sustained increase in circulating HSPCs”.
